Laboratory results reported in patent US20210380548A1, “Fused [1,2,4]Thiadiazine Derivatives Which Act as KAT Inhibitors of the MYST Family” (CTxT Pty Limited, priority 2017, published 2021).

Key:
[1] = molecular target: T1, TIP60-KAT5 (Homo sapiens, UniProt Q92993); experiment: Acetyltransferase biochemical assay (AlphaScreen), KAT5; settings: Table 1 (TIP60-KAT5); 0.4 μM Acetyl coenzyme A, histone H4, 10 nM enzyme
T1 construct: encoding amino acid residues 2 to 461 (Uniprot Q92993-2) of human KAT5 isoform; made in house; host or cells: E. coli BL21 DE3
T1 sequence (Q92993 2-461 isoform Q92993-2): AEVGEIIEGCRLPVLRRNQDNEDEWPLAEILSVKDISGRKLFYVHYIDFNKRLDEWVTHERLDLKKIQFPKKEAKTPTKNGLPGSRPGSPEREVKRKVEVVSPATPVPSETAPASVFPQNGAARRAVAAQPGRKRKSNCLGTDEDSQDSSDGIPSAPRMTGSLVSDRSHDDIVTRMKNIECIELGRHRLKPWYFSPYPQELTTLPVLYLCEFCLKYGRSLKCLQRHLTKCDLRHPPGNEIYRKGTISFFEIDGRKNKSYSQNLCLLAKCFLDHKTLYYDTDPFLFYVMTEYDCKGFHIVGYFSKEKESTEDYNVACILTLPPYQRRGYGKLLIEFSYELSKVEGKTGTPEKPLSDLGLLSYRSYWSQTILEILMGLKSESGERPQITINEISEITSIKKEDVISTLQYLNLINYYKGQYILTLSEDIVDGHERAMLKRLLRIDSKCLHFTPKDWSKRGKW

[2] = molecular target: T2, MOZ-KAT6A (Homo sapiens, UniProt Q92794, A567V); experiment: Acetyltransferase biochemical assay (AlphaScreen), KAT6A; settings: Table 2 (MOZ-KAT6A); 10 μM Acetyl coenzyme A, histone H3.1, 5 nM enzyme
T2 construct: encoding amino acid residues 507 to 778 (Uniprot Q92794-1) of human KAT6A; made in house; host or cells: E. coli BL21 DE3
T2 sequence (Q92794 507-778 A567V limits assumed): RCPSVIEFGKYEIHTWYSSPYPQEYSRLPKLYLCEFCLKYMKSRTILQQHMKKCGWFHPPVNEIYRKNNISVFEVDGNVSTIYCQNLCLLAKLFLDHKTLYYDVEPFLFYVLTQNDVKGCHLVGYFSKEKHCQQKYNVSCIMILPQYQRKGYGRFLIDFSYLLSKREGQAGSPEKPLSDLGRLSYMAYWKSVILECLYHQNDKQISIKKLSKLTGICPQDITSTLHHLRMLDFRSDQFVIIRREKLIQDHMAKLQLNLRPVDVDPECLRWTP

[3] = molecular target: T3, HBO-KAT7 (Homo sapiens, UniProt O95251); experiment: Acetyltransferase biochemical assay (AlphaScreen), KAT7; settings: Table 3 (HBO-KAT7); 0.4 μM Acetyl coenzyme A, histone H3.1, 40 nM enzyme
T3 construct: encoding amino acid residues 325 to 611 (Uniprot 095251-1) of human KAT7; made in house; host or cells: E. coli BL21 DE3 RIL
T3 sequence (O95251 with tags, fused parts or gaps): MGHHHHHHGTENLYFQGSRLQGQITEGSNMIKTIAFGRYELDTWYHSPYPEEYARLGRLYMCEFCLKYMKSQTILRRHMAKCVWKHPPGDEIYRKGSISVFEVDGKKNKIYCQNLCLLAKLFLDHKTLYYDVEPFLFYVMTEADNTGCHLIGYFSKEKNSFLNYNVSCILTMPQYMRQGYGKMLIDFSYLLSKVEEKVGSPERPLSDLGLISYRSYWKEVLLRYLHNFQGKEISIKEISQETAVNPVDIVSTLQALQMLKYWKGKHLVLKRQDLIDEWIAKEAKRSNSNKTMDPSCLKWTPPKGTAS

[4] = molecular target: T4, MOF-KAT8 (Homo sapiens, UniProt Q9H7Z6); experiment: Acetyltransferase biochemical assay (AlphaScreen), KAT8; settings: Table 4 (MOF-KAT8); 0.4 μM Acetyl coenzyme A, histone H4, 20 nM enzyme
T4 sequence (Q9H7Z6 177-447): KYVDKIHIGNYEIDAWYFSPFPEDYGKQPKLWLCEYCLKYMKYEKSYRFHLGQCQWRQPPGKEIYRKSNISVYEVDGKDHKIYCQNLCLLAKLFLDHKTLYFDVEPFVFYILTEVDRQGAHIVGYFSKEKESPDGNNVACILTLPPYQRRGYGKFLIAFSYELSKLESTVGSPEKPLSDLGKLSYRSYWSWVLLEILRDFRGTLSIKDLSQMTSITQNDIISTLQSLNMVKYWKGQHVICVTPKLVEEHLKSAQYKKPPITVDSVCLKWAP

[5] = test system: histone H3K14 acetylation (HBO1 mediated) in U2OS cells; experiment: Histone H3 Lysine 14 Acetylation Biomarker Assay (96 well, U2OS); assay type: cell-based; settings: Table 6, H3K14ac, 24 hours incubation, serum free medium
Experimental: Compounds may be tested for their ability to inhibit acetylation of the histone H3K14 marker (which is HBO1 mediated) in the following assay:
(§1) The cell line U2OS was seeded at a density of 12,000 cells per well in 96 well optical quality tissue culture plates in RPMI medium and 10% foetal bovine serum, and allowed to adhere for 24 hours under standard culture conditions (37 degree Celsius, 5% CO2). At the end of this period the cells were washed with serum free medium. Compound dilutions prepared in DMSO were added to the serum free medium, with negative control wells reserved for treatment with DMSO only and positive controls receiving a potent inhibitor compound (e.g. Example 36 in WO2016/198507) at 10 μM concentration. After incubation for 24 hours, the cells were fixed with 3.7% formaldehyde in PBS for 20 minutes at room temperature, washed with phosphate buffer saline containing 0.1% Tween 20 and blocked with Odyssey blocking buffer (LI-COR, Lincoln, Nebr.) containing 0.1% TritonX100. Anti-H3K14ac specific antibody (Cell Signalling Technologies) in Odyssey blocking buffer containing 0.1% Tween 20 was added and incubated for 14 hours at 4 degree Celsius. After washing, a secondary antibody labelled with Alexa647 dye (LifeTechnologies) and Hoechst 33342 (1 μg/mL, SigmaAldrich) were added for 1 hour incubation. Plates were washed and read on a PerkinElmer Phenix high content imaging platform. Using a Columbus image analysis pipeline, individual nuclei were located by Hoechst 33342 stain and the acetylation level was calculated from the Alexa647-related intensity in the same area. The resulting mean intensity per cell was directly converted to percent inhibition relative to controls on the same plate and the data fitted against a four-parameter logistic model to determine the 50% inhibitory concentration (IC50).

[6] = test system: histone H2A.Z Lysine 7 acetylation (TIP60 mediated) in U2OS cells; experiment: H2A.Z Lysine 7 Acetylation Biomarker Assay (96 well, U2OS); assay type: cell-based; settings: Table 7, H2A.Z K7ac, 24 hours incubation, serum free medium
Experimental: To discover a global TIP60/KAT5 cellular biomarker useful for monitoring PD responses of TIP60 inhibition in vitro and in vivo, various histone modifications were assessed for TIP60 dependence through genetic (TIP60 siRNA and CRISPR/Cas9) or TIP60 pharmacological inhibition. This analysis clearly identified acetylation of the histone variant H2A.Z at Lysine 7 (H2A.ZK7ac) as a global histone mark which is TIP60-dependent in both human and mouse cells. To a lesser extent, TIP60 also acetylated lysine 4 and 11 of H2A.Z.
Compounds may be tested for their ability to inhibit the histone H2A.Z Lysine 7 acetylation biomarker (which is TIP60 mediated) in the following assay:
as §1, with “of 9,000” for “of 12,000”, “Example 146)” for “Example 36 in WO2016/198507)”, “at 20” for “at 10”, “TritonX100. Anti-H2A.Z K7ac” for “TritonX100. Anti-H3K14ac”, “antibody (Abcam)” for “antibody (Cell Signalling Technologies)”, “33342 (10 μM,” for “33342 (1 μg/mL,”

[7] = molecular target: T2, MOZ-KAT6A; experiment: Revised Acetyltransferase Biochemical Assay, KAT6A; settings: Table 8 (MOZ-KAT6A), 1 μM Acetyl coenzyme A
[8] = molecular target: T3, HBO-KAT7; experiment: Revised Acetyltransferase Biochemical Assay, KAT7; settings: Table 9 (HBO-KAT7), 1 μM Acetyl coenzyme A
[9] = molecular target: T1, TIP60-KAT5; experiment: Revised Acetyltransferase Biochemical Assay, KAT5; settings: 10 nM KAT5, 1 μM AcCoA, 100 nM histone H4, 90 min
[10] = molecular target: T5, QKF-KAT6B (Homo sapiens, UniProt Q8WYB5); experiment: Revised Acetyltransferase Biochemical Assay, KAT6B; settings: 8 nM KAT6B, 1 μM AcCoA, 100 nM histone H3.1, 90 min
T5 construct: purchased SignalChem K315-381BG
T5 sequence (Q8WYB5 whole entry): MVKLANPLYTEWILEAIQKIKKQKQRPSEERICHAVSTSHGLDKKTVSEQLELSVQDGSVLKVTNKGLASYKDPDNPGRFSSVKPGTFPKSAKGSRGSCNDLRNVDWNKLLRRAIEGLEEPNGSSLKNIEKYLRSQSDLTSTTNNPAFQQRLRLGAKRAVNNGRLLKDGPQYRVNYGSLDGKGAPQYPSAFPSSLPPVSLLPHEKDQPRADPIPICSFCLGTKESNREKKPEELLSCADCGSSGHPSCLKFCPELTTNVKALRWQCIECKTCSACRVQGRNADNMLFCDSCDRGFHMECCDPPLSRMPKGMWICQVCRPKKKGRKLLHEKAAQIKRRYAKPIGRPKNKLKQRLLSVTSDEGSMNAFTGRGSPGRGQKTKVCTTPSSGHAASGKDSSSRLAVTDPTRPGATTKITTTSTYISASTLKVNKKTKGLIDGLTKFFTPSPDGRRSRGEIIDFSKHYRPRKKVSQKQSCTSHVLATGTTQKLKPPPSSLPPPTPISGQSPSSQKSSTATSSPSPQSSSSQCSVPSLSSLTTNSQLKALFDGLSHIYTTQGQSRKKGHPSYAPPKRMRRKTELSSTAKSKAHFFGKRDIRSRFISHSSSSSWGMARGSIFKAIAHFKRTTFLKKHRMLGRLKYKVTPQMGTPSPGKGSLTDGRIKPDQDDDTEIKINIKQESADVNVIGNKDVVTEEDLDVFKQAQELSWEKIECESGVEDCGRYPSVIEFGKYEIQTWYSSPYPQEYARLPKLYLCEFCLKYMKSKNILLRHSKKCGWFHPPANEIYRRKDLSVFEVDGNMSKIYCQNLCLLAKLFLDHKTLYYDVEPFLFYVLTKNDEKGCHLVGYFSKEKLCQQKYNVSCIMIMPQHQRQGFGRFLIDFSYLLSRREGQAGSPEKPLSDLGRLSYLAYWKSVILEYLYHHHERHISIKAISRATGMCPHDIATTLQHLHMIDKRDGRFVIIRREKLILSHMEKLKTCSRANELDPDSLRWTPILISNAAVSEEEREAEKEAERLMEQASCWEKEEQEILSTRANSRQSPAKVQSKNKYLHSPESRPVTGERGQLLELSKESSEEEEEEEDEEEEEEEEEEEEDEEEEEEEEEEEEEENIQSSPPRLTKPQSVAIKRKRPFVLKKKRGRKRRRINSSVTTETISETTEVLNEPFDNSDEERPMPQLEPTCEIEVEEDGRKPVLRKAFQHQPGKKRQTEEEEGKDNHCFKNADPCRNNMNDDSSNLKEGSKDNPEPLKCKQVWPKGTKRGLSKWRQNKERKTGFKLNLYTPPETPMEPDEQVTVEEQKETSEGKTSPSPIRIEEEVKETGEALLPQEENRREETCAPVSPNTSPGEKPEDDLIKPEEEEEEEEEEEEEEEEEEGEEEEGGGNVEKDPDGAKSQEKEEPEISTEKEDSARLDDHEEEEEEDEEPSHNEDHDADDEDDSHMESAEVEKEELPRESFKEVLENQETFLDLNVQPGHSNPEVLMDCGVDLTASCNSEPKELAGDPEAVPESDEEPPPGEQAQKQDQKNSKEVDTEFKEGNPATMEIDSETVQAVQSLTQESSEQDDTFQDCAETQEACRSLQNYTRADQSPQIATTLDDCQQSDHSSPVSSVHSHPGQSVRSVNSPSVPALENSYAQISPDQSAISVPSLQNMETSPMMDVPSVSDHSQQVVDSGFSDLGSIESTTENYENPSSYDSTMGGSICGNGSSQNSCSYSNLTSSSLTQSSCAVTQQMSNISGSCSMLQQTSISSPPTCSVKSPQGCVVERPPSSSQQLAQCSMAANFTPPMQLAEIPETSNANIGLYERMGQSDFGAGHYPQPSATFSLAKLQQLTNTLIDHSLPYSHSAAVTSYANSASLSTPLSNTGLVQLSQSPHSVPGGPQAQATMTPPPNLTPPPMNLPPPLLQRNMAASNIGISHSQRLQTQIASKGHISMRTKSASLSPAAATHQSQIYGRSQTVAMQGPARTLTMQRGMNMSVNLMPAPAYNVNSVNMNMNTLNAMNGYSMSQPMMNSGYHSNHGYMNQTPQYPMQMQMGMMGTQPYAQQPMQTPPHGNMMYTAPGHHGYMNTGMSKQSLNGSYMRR
Description: KAT6B was obtained from SignalChem, catalog ID: K315-381BG

[11] = test system: histone H3K23 acetylation (KATE mediated) in U2OS cells; experiment: Histone H3 Lysine 23 Acetylation Biomarker Assay (U2OS); assay type: cell-based; settings: Homo sapiens, 96 well, 24 hours incubation
Method in brief: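 U2OS cells were treated with compound for 24 h, then fixed and immunostained for H3K23ac with Hoechst nuclear counterstain. Per-nucleus Alexa647 intensity was quantified by high-content imaging and converted to % inhibition against DMSO and 10 μM reference-inhibitor controls. IC50 was derived from a four-parameter logistic fit.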

[12] = molecular target: T4, MOF-KAT8; experiment: Revised Acetyltransferase Biochemical Assay, KAT8

Structure (SMILES) | IC50 [1] [nM] | IC50 [2] [nM] | IC50 [3] [nM] | IC50 [4] [nM] | IC50 [5] [nM] | IC50 ([6]; Homo sapiens) [nM] | IC50 [6] [nM] | IC50 ([5]; Homo sapiens, 24 h) [nM] | IC50 [7] [nM] | IC50 [8] [nM] | IC50 [9] [nM] | IC50 [10] [nM] | IC50 [11] [nM] | IC50 [12] [nM]
[C-]#[N+]c1ccc2c(c1)S(=O)(=O)NC(C(=O)NCC(c1ccccc1)c1ncco1)=N2 (single isomer, unassigned) [Example 142] | 4270 | 21.1 | 6570 | 56700 | 17500 | – | – | – | – | – | – | – | – | –
[C-]#[N+]c1ccc2c(c1)S(=O)(=O)NC(C(=O)NCC(c1ccccc1)c1ncco1)=N2 (single isomer, unassigned) [Example 143] | 13800 | 346 | 1750 | 30000 | 14600 | – | – | – | – | – | – | – | – | –
O=C(NCC(c1ccccc1)c1ncco1)C1=Nc2ccc(O)cc2S(=O)(=O)N1 (stereo not shown) [Example 8, 7-Hydroxy-N-(2-(oxazol-2-yl)-2-phenylethyl)-2H-benzo[e][1,2,4]thiadiazine-3-carboxamide 1,1-dioxide] | 4400 | – | 1200 | – | – | – | – | 9680 | 11 | 134 | 2010 | 210 | 5860 | 10500
O=C(NCC(c1ccccc1)n1cccn1)C1=Nc2ccc(Br)cc2S(=O)(=O)N1 (stereo not shown) [Example 84] | 778 | 256 | 83.6 | 33300 | – | – | – | 765 | 17 | 62 | 426 | – | – | 77000
COc1cccc(CCNC(=O)C2=Nc3ccc(I)cc3S(=O)(=O)N2)c1 [Example 101] | > 125000 | 10200 | > 125000 | – | – | 30000 | – | 30000 | – | – | – | – | – | –
O=C(NCCc1ccccc1OC(F)F)C1=Nc2ccc(Br)cc2S(=O)(=O)N1 [Example 115] | 423 | 476 | 229 | 31200 | – | – | – | 1060 | – | – | – | – | – | –
O=C(NCC(O)c1cccc(OCc2ccccc2)c1)C1=Nc2ccc(I)cc2S(=O)(=O)N1 (stereo not shown) [Example 122] | > 125000 | – | > 125000 | – | – | 10000 | – | – | – | – | – | – | – | –

The remaining compounds from weak to strong by IC50 [1], led by results:

IC50 [1] [nM] | IC50 [2] [nM] | IC50 [3] [nM] | IC50 [4] [nM] | IC50 [5] [nM] | IC50 ([6]; Homo sapiens) [nM] | IC50 [6] [nM] | IC50 ([5]; Homo sapiens, 24 h) [nM] | IC50 [7] [nM] | IC50 [8] [nM] | IC50 [9] [nM] | IC50 [10] [nM] | IC50 [11] [nM] | IC50 [12] [nM] | Structure (SMILES)
27600 | 8030 | 633 | > 125000 | 7890 | – | – | – | – | – | – | – | – | – | O=C(NCC(c1ccccc1)c1ncco1)C1=Nc2ccccc2S(=O)(=O)N1 (single isomer, unassigned) [Example 136]
19600 | 661 | 538 | – | – | – | – | 9980 | 74 | 3380 | 5470 | 724 | 263 | – | O=C(NCC(c1ccccc1)c1ncco1)C1=Nc2ccc(F)cc2S(=O)(=O)N1 (stereo not shown) [Example 36, 7-fluoro-N-(2-(oxazol-2-yl)-2-phenylethyl)-2H-benzo[e][1,2,4]thiadiazine-3-carboxamide 1,1-dioxide]
9200 | 2200 | 9590 | – | – | – | – | 30000 | 98 | 1790 | 2000 | 1780 | > 10000 | > 125000 | O=C(NCCc1ccccc1)C1=Nc2ccc(I)cc2S(=O)(=O)N1 [Example 93]
3080 | 107 | 913 | 100000 | 2450 | 10000 | – | – | – | – | – | – | – | – | O=C(NCC(c1ccccc1)c1ncco1)C1=Nc2ccccc2S(=O)(=O)N1 (single isomer, unassigned) [Example 137]
2620 | – | 5870 | – | – | 26800 | – | – | – | – | – | – | – | – | COC(=O)c1ccccc1CCNC(=O)C1=Nc2ccc(I)cc2S(=O)(=O)N1 [Example 12, Methyl 2-(2-(7-iodo-1,1-dioxido-2H-benzo[e][1,2,4]thiadiazine-3-carboxamido)ethyl)benzoate]
727 | 229 | 981 | – | – | 5780 | – | – | 10 | 128 | 111 | – | – | 36400 | O=C(NCCc1ccccc1-c1ncco1)C1=Nc2ccc(I)cc2S(=O)(=O)N1 [Example 13, 7-Iodo-N-(2-(oxazol-2-yl)phenethyl)-2H-benzo[e][1,2,4]thiadiazine-3-carboxamide 1,1-dioxide]
367 | 783 | 675 | 21800 | – | – | – | 1390 | – | – | – | – | – | – | O=C(NCCc1ccccc1OC(F)(F)F)C1=Nc2ccc(I)cc2S(=O)(=O)N1 [Example 92]
269 | 80.9 | 219 | – | – | – | – | 650 | 10 | 63 | 61 | – | – | 1300 | Cc1noc(C(CNC(=O)C2=Nc3ccc(I)cc3S(=O)(=O)N2)c2ccccc2)n1 (stereo not shown) [Example 56]
95.2 | – | 234 | 8070 | 145 | – | 1460 | – | – | – | – | – | – | – | O=C(NCC(c1ccccc1)c1ncco1)C1=Nc2ccc(Br)cc2S(=O)(=O)N1 (single isomer, unassigned) [Example 138]
